The record followed here is patent US20060110790A1, “Expression system for large functional proteins” (priority 2002, published 2006).

In the assay the target is T1, co-expressed N and C halves of ABCR (Homo sapiens, UniProt P78363).
T1 construct: The cDNAs coding for the N-half (amino acids 1-1325) and C-half (amino acids 1326-2273) of ABCR; made in house; host or cells: COS-1 cells, co-transfected
T1 sequence (P78363 1-1325): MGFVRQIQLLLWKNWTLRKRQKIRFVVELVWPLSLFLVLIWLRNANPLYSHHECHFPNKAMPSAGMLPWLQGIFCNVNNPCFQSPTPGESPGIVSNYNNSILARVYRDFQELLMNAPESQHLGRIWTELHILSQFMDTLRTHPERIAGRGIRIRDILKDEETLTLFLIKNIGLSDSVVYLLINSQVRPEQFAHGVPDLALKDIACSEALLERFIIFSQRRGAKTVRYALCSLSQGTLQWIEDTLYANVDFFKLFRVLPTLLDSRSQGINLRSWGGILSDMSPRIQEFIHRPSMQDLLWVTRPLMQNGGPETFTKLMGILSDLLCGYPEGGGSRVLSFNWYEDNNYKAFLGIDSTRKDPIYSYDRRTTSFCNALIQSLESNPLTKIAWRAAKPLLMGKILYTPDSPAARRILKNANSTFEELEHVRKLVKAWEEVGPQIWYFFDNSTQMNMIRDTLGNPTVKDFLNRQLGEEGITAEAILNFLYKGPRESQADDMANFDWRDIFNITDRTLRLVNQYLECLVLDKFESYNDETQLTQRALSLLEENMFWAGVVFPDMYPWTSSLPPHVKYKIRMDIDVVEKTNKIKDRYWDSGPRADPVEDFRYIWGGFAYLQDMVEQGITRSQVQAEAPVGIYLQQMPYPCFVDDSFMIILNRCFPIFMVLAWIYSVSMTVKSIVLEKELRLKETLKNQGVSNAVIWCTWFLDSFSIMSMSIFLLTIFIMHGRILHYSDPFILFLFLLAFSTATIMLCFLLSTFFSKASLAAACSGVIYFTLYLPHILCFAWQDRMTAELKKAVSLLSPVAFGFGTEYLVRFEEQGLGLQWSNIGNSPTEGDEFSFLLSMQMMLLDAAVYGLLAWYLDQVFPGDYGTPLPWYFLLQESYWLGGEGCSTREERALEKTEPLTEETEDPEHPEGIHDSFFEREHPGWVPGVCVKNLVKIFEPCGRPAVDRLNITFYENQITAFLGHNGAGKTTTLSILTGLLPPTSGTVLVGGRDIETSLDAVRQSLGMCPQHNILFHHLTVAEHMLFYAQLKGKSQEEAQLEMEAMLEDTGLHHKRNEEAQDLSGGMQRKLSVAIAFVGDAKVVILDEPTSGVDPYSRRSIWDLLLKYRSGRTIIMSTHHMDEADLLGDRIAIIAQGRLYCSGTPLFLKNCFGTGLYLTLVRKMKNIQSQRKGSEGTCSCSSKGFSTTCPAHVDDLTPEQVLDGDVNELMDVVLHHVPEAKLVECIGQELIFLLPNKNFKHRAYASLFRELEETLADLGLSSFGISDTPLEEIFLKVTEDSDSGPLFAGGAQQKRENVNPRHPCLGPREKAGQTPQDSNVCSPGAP
T1 sequence (P78363 1326-2273): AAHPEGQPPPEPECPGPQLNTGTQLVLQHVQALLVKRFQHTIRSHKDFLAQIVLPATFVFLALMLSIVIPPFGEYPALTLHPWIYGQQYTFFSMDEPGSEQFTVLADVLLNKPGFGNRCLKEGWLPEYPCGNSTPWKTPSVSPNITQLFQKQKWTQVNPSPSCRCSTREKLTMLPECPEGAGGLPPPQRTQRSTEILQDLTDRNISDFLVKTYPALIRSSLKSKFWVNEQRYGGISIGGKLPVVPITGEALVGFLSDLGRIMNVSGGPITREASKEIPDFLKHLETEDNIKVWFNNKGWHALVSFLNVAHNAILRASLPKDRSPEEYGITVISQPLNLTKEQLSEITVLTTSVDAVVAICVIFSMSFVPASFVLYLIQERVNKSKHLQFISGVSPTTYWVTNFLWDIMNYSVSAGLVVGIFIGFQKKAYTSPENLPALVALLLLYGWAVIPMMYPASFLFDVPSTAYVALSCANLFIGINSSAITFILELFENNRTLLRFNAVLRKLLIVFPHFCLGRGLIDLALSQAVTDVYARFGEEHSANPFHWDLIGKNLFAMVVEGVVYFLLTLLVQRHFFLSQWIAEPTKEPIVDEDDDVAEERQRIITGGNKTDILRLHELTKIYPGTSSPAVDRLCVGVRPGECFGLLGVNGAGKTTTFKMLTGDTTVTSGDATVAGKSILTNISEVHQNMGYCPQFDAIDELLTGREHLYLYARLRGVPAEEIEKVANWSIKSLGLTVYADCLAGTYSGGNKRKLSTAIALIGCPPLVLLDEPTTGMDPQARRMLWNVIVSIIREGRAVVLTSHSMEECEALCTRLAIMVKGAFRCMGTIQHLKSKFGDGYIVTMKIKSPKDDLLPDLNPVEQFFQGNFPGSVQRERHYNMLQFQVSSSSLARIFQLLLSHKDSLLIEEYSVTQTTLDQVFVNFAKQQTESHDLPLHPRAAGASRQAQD
Kind of assay: Retinal-stimulated ATPase activity of purified protein reconstituted in lipid vesicles. As to conditions: expressed in COS-1 cells, purified on Rim 3F4 column, 50 μM [α32P]ATP. It counts as biochemical. The method, then:
Membranes (from two 10 cm dishes) were solubilized in 0.5 ml of 1% Triton-X100 in Buffer A (140 mM NaCl, 20 mM Tris-HCl, pH 7.4) for 20 min on ice. For ATPase assays, the membrane preparation step was omitted and the cell suspension was solubilized directly in Buffer B (10 mg/ml soybean phospholipids, 10% glycerol, 1 mM dithiothreitol, 100 mM NaCl, 3 mM MgCl2, 50 mM NaHEPES, pH 7.4) containing 18 mM CHAPS. The supernatant after a 10 min centrifugation at 40,000 rpm (TLA100.4 rotor) was mixed with 50 μl Rim3F4 Sepharose 2B for 1 h at 4° C. The beads were washed 6 times in Buffer A containing 0.2% Triton X-100 or Buffer B containing 10 mM CHAPS and eluted with 4% SDS (for electrophoresis) or 0.2 mg/ml Rim3F4 peptide (for reconstitution and determination of ATPase activity). Purified protein (24 μl) was incubated with 6 μl of 50 mg/ml lipid (1:1 mixture of dioleoylphosphatidylethanolamine and brain polar lipid, by weight) and 3 μl n-octylglucoside for 30 min on ice. The mixture was diluted rapidly with 200 μl of Buffer C (1 mM dithiothreitol, 140 mM NaCl, 25 mM NaHEPES, pH 7.4) and passed through a 200 μl Extracti-gel column (Pierce). The flow-through containing the reconstituted protein was used for determination of ATPase activity.
ATPase activity was measured as described previously (Ahn, J., Wong, J. T., and Molday, R. S. (2000) J Biol Chem 275(27), 20399-405) using 50 μM [α^32P]ATP and thin layer chromatography. The all-trans retinal concentration was determined spectrophotometrically (λ383 nm=42.88 mM^−1 cm^−1). Protein concentration was estimated from the eluate before reconstitution by laser densitometry of Coomassie blue stained gels using bovine serum albumin as a standard. […] Direct protein measurements after reconstitution by densitometry of Western blots was about half of that in the eluate. […]
ATPase Activity of Expressed N and C Halves—The basal and retinal activated ATPase activity of full-length ABCR and the N and C halves individually or co-expressed in COS-1 cells was determined after immunoaffinity purification and reconstitution into lipid vesicles. […]

`CC1=C(/C=C/C(C)=C/C=C/C(C)=C/C=O)C(C)(C)CCC1` [all-trans retinal]: the “stimulation of ATPase activity” value is recorded as 1-2 fold.
